# Experimental data as given in ChEMBL document CHEMBL1201862, “PubChem BioAssay data set” (2004).
# The source made the active and inactive calls.
# Legend:
# [1] = target: T1, Short transient receptor potential channel 4 (Mus musculus, UniProt Q9QUQ5); experiment: mouse TRPC4 channel activators, dose response, cell-based, HEK293 TRPC4/mu-opioid, Fluo-4 calcium (AID 434937); format: functional
# T1 sequence (Q9QUQ5 whole entry): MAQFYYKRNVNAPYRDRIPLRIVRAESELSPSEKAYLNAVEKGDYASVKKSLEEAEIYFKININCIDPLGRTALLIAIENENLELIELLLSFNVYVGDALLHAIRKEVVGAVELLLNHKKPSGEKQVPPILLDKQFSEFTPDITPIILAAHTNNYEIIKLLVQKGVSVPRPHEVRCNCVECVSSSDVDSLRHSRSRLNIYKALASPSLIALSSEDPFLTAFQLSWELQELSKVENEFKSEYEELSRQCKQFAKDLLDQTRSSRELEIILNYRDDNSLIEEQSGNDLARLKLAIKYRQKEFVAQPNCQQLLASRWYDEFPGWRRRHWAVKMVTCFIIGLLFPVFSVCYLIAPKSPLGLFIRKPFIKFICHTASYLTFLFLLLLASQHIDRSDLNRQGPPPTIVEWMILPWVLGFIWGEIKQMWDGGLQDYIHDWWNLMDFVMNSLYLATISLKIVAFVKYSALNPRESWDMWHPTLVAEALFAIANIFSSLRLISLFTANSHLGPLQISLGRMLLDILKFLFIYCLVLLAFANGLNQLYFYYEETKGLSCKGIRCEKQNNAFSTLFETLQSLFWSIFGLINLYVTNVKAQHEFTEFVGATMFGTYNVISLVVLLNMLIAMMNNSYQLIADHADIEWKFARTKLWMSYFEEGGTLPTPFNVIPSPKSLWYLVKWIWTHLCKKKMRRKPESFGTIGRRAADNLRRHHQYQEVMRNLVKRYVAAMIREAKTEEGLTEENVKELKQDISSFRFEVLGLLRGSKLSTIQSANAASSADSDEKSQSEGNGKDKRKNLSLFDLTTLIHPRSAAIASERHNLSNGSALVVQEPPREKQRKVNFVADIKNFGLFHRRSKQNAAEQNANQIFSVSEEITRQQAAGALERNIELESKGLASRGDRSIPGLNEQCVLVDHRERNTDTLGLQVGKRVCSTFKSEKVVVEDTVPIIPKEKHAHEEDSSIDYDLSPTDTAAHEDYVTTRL
# Cytochrome P450 3A4 = Cytochrome P450 3A4 (Homo sapiens, UniProt P08684); settings: Potency;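 also: confirmatory qHTS run detecting inhibitors and substrates of CYP3A4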
# Cytochrome P450 3A4, sequence (P08684 whole entry): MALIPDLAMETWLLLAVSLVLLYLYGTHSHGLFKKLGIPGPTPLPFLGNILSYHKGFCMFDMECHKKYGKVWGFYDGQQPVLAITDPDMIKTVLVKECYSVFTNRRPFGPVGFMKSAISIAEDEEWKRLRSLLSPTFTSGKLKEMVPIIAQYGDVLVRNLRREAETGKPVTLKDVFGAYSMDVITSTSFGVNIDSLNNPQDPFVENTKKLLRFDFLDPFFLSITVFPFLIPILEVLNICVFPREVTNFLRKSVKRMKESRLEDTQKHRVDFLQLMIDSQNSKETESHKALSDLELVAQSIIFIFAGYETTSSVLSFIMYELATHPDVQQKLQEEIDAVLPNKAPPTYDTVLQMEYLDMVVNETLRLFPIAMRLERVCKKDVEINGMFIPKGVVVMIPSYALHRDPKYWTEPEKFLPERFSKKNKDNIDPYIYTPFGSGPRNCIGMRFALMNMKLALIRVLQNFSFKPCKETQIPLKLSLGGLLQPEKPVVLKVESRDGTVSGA
# Estrogen receptor = target: T2, Estrogen receptor (Homo sapiens, UniProt P03372);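 also: potency for inhibiting coactivator peptide recruitment to the receptor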
# T2 sequence (P03372 whole entry): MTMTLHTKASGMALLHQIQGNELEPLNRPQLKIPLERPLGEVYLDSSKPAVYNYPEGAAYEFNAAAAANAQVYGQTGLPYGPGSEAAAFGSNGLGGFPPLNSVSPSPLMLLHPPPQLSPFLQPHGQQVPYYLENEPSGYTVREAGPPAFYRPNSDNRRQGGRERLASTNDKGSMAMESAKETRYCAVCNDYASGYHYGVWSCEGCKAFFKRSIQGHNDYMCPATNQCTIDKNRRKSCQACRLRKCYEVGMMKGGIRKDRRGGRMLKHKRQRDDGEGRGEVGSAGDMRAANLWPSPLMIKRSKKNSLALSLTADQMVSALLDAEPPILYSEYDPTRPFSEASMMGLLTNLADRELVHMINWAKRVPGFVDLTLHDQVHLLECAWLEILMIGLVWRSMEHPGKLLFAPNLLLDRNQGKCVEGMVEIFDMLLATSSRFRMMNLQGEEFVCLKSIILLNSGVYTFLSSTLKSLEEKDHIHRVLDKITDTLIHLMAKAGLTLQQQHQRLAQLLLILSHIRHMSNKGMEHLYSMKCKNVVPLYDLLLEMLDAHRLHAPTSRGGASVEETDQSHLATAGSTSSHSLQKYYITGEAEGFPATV
# [2] = target: T1, Short transient receptor potential channel 4; experiment: mouse TRPC4 channel inhibitors, dose response, cell-based, HEK293 TRPC4/mu-opioid, Fluo-4 calcium (AID 434942); format: functional;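 also: potency of inhibitors blocking the TRPC4 calcium response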
# Large T antigen = Large T antigen (Simian virus 40, UniProt P03070); format: functional, Betapolyomavirus macacae;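 also: Confirmatory-stage PubChem screen for compounds that inhibit SV40 T antigen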
# Large T antigen, sequence (P03070 whole entry): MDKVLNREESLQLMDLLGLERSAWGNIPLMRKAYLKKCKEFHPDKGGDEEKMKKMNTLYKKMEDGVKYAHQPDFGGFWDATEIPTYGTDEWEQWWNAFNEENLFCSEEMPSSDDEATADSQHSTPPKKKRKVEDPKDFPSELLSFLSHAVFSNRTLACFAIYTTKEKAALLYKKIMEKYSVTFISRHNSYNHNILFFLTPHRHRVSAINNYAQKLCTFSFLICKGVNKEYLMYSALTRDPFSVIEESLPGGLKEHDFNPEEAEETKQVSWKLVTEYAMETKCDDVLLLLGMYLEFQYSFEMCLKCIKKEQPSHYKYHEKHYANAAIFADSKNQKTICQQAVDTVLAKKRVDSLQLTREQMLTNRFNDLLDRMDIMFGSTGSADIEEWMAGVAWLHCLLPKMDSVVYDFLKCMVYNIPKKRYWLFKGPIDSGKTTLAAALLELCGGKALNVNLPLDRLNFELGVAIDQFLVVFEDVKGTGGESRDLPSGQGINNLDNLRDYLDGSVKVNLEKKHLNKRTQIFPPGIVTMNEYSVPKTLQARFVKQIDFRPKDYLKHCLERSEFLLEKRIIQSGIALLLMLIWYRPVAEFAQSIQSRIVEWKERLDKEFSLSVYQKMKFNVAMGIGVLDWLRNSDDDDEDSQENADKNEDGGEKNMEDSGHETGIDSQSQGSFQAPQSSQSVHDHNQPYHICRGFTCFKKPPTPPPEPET
# [3] = P. falciparum Dd2 growth inhibitors, dose response, SYBR Green, cherry-picked samples (AID 1159567); format: functional, cell-based
# [4] = HepG2 cell cytotoxicity, dose response, cytotoxicity control, cherry-picked samples (AID 1159577); format: functional, cell-based
# Paired box protein Pax-8 = Paired box protein Pax-8 (Homo sapiens, UniProt Q06710); experiment: inhibitors of PAX8-driven TPO luciferase reporter, dose response, RMG-I cells, cherry-pick (AID 687027); format: functional, cell-based;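 also: luciferase reporter driven by Pax8 target thyroperoxidase promoter measured by SteadyGlo luminescence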
# Paired box protein Pax-8, sequence (Q06710 whole entry): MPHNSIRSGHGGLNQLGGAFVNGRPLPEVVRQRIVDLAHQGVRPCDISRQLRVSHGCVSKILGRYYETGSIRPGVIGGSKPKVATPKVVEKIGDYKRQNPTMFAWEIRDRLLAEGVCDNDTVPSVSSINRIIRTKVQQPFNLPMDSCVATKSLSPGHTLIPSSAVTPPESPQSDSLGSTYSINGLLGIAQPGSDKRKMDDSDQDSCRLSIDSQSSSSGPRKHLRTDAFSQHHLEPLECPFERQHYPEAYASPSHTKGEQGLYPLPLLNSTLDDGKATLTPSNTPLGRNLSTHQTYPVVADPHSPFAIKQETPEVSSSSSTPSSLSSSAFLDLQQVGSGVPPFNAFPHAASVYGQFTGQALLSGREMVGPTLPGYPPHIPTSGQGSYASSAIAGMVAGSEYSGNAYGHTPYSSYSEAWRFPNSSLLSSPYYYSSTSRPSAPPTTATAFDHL
# [5] = target: T3, Apoptotic protease-activating factor 1 (Homo sapiens, UniProt O14727); format: functional
# T3 sequence (O14727 whole entry): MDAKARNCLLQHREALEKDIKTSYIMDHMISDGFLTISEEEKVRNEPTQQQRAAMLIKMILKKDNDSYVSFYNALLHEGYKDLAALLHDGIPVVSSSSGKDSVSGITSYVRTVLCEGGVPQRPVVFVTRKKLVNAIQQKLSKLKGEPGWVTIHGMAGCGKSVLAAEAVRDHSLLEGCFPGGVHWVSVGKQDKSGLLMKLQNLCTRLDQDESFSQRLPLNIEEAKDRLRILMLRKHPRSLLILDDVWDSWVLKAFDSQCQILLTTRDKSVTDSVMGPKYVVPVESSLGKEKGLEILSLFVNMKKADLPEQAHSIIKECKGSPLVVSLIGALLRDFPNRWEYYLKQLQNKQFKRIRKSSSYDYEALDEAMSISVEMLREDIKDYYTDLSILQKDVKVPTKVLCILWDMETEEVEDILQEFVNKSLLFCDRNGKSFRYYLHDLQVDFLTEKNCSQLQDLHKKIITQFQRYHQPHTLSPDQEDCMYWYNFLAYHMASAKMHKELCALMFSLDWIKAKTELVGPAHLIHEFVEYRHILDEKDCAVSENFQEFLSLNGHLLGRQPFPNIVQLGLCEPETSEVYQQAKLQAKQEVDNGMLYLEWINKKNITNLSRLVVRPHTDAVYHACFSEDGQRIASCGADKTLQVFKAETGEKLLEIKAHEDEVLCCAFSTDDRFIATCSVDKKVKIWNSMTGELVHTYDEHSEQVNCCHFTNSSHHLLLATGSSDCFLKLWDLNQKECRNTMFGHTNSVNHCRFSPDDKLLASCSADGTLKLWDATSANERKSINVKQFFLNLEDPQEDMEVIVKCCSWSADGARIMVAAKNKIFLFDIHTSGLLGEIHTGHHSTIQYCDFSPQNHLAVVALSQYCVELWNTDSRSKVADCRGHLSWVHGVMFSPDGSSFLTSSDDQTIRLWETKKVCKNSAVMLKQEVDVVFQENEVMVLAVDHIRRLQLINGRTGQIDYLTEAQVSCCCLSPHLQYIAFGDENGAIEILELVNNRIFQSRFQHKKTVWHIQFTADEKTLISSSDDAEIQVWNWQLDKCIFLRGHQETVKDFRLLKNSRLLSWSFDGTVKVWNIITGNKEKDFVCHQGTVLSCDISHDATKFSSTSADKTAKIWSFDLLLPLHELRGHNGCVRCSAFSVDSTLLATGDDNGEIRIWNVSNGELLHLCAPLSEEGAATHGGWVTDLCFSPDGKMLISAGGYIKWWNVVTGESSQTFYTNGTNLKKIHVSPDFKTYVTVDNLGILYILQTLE
# [6] = inhibitors of HIV Env-driven cell fusion, dose response, cherry-pick (AID 652057); format: functional, cell-based
# [7] = target: T4, Zinc finger protein mex-5 (Caenorhabditis elegans, UniProt Q9XUB2); experiment: MEX-5/TCR-2 RNA interaction inhibitors, dose response, biochemical, C. elegans, fluorescence polarization (AID 1960)
# T4 sequence (Q9XUB2 whole entry): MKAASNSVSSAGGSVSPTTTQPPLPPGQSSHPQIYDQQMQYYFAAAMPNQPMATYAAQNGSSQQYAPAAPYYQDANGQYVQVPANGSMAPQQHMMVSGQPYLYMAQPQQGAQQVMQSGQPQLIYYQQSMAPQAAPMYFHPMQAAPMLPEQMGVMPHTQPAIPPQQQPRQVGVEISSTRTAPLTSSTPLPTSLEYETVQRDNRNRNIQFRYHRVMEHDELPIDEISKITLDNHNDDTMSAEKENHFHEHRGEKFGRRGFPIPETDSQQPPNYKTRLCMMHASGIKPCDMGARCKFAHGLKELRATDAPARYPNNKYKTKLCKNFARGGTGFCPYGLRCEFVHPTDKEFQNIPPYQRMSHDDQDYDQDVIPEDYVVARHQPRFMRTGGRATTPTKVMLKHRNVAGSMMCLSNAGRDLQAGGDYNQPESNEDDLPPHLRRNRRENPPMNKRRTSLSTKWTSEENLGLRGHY
# cells [8] = format: functional, cell-based
# cells [9] = format: functional, cell-based; remark: listed apart in the source
# [10] = target: T5, RNA-binding protein pos-1 (Caenorhabditis elegans, UniProt G5EF15); experiment: inhibitors of POS-1/mex-3 RNA binding, dose response, biochemical, fluorescence polarization (AID 1964);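 also: purified POS-1 fused to maltose binding protein made in E. coli; potency of compounds blocking POS-1 binding to fluorescent RNA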
# T5 sequence (G5EF15 whole entry): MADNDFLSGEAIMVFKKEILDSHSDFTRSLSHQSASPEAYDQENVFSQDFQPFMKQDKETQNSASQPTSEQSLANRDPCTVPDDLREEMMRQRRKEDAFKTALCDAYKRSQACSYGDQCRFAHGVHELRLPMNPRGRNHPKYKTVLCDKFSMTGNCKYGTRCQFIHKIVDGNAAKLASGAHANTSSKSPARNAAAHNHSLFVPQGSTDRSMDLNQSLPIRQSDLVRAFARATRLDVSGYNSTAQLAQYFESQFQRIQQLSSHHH
smiles,measurement,setting,value
CN1CCCC(OC(=O)c2cc(Cl)cc(Cl)c2)C1 (centres undefined),EC50,[1],0.188 µM (active)
COC(=O)[C@]1(C)C[C@H]1[C@H](NP(=O)(c1ccccc1)c1ccccc1)c1ccccc1,AC50,Cytochrome P450 3A4,12.6 µM (inconclusive)
COCCNC(=O)c1c(N)n(/N=C/c2cccs2)c2nc3ccccc3nc12,IC50,Estrogen receptor,11.2 µM (active)
CCOC(=O)c1c(NC(=O)C(C)Sc2nnc(C)c(O)n2)sc2c1CCCC2 (centres undefined),EC50,[2],0.237 µM (active)
CC1(C)CC(NC(=O)c2cc(COc3cccc(C(F)(F)F)c3)on2)CCO1 (centres undefined),EC50,[2],1.88 µM (active)
CN(C)C(CN=C(S)Nc1ccc(Cl)cc1)c1cccnc1 (centres undefined),EC50,[1],0.0147 µM (active)
CC(Nc1ccc(N2CCOCC2)cc1)C(=O)N1c2ccccc2CC1C (centres undefined),IC50,Large T antigen,21.1 µM (active)
N#Cc1c(N)sc2c1CCCCCC2,EC50,[2],3.76 µM (active)
CCOc1cc(/C=N\NC(=O)Cn2nnc3ccccc32)ccc1O,IC50,Large T antigen,13.1 µM (active)
COc1cc(Cl)ccc1NC(=O)COc1ccccc1C(=O)N1CCN(c2ccc(O)cc2)CC1,IC50,Large T antigen,13.4 µM (active)
C#C[C@]1(OC(C)=O)CCC2C3CCC4=CC(=O)CCC4C3CC[C@]21C (some centres undefined),AC50,Cytochrome P450 3A4,39.8 µM (inconclusive)
COc1ccc(C2COc3c(ccc(O)c3OC)C2)c(OC)c1O (centres undefined),AC50,Cytochrome P450 3A4,25.1 µM (inconclusive)
O=C(/C=C/c1ccc(O)c(O)c1)O[C@@H]1C[C@](O)(C(=O)O)C[C@@H](O)[C@H]1O [CHLOROGENIC ACID],IC50,Large T antigen,14.7 µM (active)
COc1cc(OC)c(C(C)=O)c(O)c1C,AC50,Cytochrome P450 3A4,0.316 µM (inconclusive)
Cc1ccccc1-c1ccc([C@@H]2[C@@H]3CN(Cc4cccnc4)C[C@H]2N3)cc1,AC50,[3],1.19 µM (active)
same,AC50,[4],9.78 µM (active)
C[C@@H]1CN([C@@H](C)CO)C(=O)c2ccccc2-c2ccccc2CO[C@H]1CN(C)Cc1ccccc1C(F)(F)F,AC50,Paired box protein Pax-8,12.3 µM (active)
same,AC50,[3],2.97 µM (active)
same,AC50,[4],7.72 µM (active)
N#Cc1cccc(-c2ccc([C@@H]3[C@@H]4CN(C(=O)Nc5ccc(C(F)(F)F)cc5)C[C@H]3N4)cc2)c1,AC50,[3],4.72 µM (active)
same,AC50,[4],10.5 µM (active)
N#Cc1ccc(C23CC4(C2)[C@H](CN(P(=O)(c2ccccc2)c2ccccc2)[C@@H]4c2ccccc2)C3c2ccc(Cl)nc2)cc1 (some centres undefined),AC50,Cytochrome P450 3A4,2 µM (inconclusive)
Cc1cccc(N(C(=O)c2snc(C(N)=O)c2N)C(C(=O)NCC2CCCO2)c2ccc3ncccc3c2)c1 (centres undefined),EC50,[2],7.5 µM (active)
C=C(C)Cc1c(C)c(C#N)c2nc3ccccc3n2c1O,IC50,[5],38.6 µM (active)
CN1CCC(=O)N([C@H](CSc2ccc(Br)cc2)Cc2ccccc2)CC1,EC50,[1],4.73 µM (active)
Cc1ccccc1-c1ccc([C@H]2[C@@H]3CN(Cc4cccnc4)C[C@H]2N3)cc1,AC50,[3],4.95 µM (active)
same,AC50,[4],24.4 µM (active)
C[C@H]1CN([C@@H](C)CO)C(=O)Cc2cc(NS(=O)(=O)c3ccccc3)ccc2O[C@@H]1CN(C)Cc1ccc(Cl)c(Cl)c1,AC50,[6],37.1 µM (active)
O=C(COC(=O)c1ccccc1Oc1ccccc1)NCc1ccco1,IC50,Estrogen receptor,17.9 µM (active)
Cc1ccc(S(=O)(=O)N(C)C[C@H]2Oc3cc(C4=CCCC4)ccc3S(=O)(=O)N([C@H](C)CO)C[C@H]2C)cc1,AC50,[6],10.1 µM (active)
COc1ccc(-c2nnc(-c3cc4c(ccc5ccccc54)oc3=O)o2)cc1,EC50,[7],> 300 µM (inconclusive)
same,EC50,cells [8],> 350 µM (not active)
same,EC50,cells [9],> 350 µM (not active)
same,EC50,[10],> 300 µM (not active)
same,IC50,Estrogen receptor,20 µM (active)
COc1ccc(OC)c(N2Cc3ccccc3C2=N)c1,EC50,[2],3.35 µM (active)
Cc1cccc(-c2ccc([C@H]3[C@@H](CO)N4CCCCN(S(=O)(=O)c5cccc(C)c5)C[C@H]34)cc2)c1,AC50,[3],1.87 µM (active)
same,AC50,[4],11.6 µM (active)
Cc1ccc(-c2nn(-c3cccc(F)c3)cc2CNCc2cccnc2)o1,EC50,[1],2.66 µM (active)
